Assay: xn = mol fraction of the nth substance listed
Settings: for viscosity / speed of sound / mass density: 102 kPa, Liquid; for viscosity: Concentric cylinders viscometry; for speed of sound: Single path-length method; for mass density: Vibrating tube method; for surface tension liquid-gas: Pendant drop shape

CCC1CCCCC1 [ethylcyclohexane] + CCCCCCCCCCCC
Settings | mass density [kg/m3] | speed of sound [m/s] | surface tension liquid-gas [mN/m] | viscosity [mPa·s]
293.15 K, x1 = 0.1 | 751.13 | 1296.6 | – | 1.43
293.15 K, x1 = 0.216 | 754.22 | 1295.2 | – | 1.34
293.15 K, x1 = 0.2999 | 756.65 | 1294.3 | – | 1.3
293.15 K, x1 = 0.4 | 759.77 | 1293.4 | – | 1.22
293.15 K, x1 = 0.5 | 763.3 | 1292.4 | – | 1.16
293.15 K, x1 = 0.5999 | 767.13 | 1291.8 | – | 1.13
293.15 K, x1 = 0.7 | 771.4 | 1291.3 | – | 1.07
293.15 K, x1 = 0.8 | 776.25 | 1291.2 | – | 0.998
293.15 K, x1 = 0.9 | 781.76 | 1291.7 | – | 0.932
294 K, x1 = 0.216 | – | – | 25.1 | –
294 K, x1 = 0.2999 | – | – | 25.1 | –
294 K, x1 = 0.4 | – | – | 25.1 | –
294 K, x1 = 0.5 | – | – | 25.1 | –
294 K, x1 = 0.5999 | – | – | 25.2 | –
294 K, x1 = 0.8 | – | – | 25.2 | –
303.15 K, x1 = 0.1 | 743.84 | 1257.8 | – | 1.2
303.15 K, x1 = 0.216 | 746.88 | 1256.6 | – | 1.15
303.15 K, x1 = 0.2999 | 749.28 | 1255.1 | – | 1.1
303.15 K, x1 = 0.4 | 752.35 | 1254 | – | 1.04
303.15 K, x1 = 0.5 | 755.8 | 1253.1 | – | 0.966
303.15 K, x1 = 0.5999 | 759.56 | 1251.7 | – | 0.934
303.15 K, x1 = 0.7 | 763.73 | 1250.7 | – | 0.887
303.15 K, x1 = 0.8 | 768.48 | 1250 | – | 0.832
303.15 K, x1 = 0.9 | 773.85 | 1249.7 | – | 0.782
313.15 K, x1 = 0.1 | 736.53 | 1219.8 | – | 1.02
313.15 K, x1 = 0.216 | 739.51 | 1218.6 | – | 0.973
313.15 K, x1 = 0.2999 | 741.87 | 1216.7 | – | 0.939
313.15 K, x1 = 0.4 | 744.89 | 1215.3 | – | 0.899
313.15 K, x1 = 0.5 | 748.26 | 1214.3 | – | 0.876
313.15 K, x1 = 0.5999 | 751.95 | 1212.4 | – | 0.85
313.15 K, x1 = 0.7 | 756.03 | 1210.9 | – | 0.789
313.15 K, x1 = 0.8 | 760.66 | 1209.6 | – | 0.743
313.15 K, x1 = 0.9 | 765.89 | 1208.6 | – | 0.698
323.15 K, x1 = 0.1 | 729.18 | 1182.5 | – | 0.893
323.15 K, x1 = 0.216 | 732.1 | 1181.1 | – | 0.858
323.15 K, x1 = 0.2999 | 734.42 | 1179 | – | 0.823
323.15 K, x1 = 0.4 | 737.38 | 1177.4 | – | 0.79
323.15 K, x1 = 0.5 | 740.68 | 1176.1 | – | 0.759
323.15 K, x1 = 0.5999 | 744.29 | 1173.8 | – | 0.718
323.15 K, x1 = 0.7 | 748.27 | 1171.9 | – | 0.686
323.15 K, x1 = 0.8 | 752.78 | 1170 | – | 0.646
323.15 K, x1 = 0.9 | 757.88 | 1168.3 | – | 0.614
333.15 K, x1 = 0.1 | 721.79 | 1146.2 | – | 0.769
333.15 K, x1 = 0.216 | 724.65 | 1144.3 | – | 0.757
333.15 K, x1 = 0.2999 | 726.93 | 1142.1 | – | 0.713
333.15 K, x1 = 0.4 | 729.83 | 1140.5 | – | 0.685
333.15 K, x1 = 0.5 | 733.05 | 1138.6 | – | 0.667
333.15 K, x1 = 0.5999 | 736.58 | 1136.2 | – | 0.627
333.15 K, x1 = 0.7 | 740.46 | 1133.9 | – | 0.601
333.15 K, x1 = 0.8 | 744.85 | 1131.3 | – | 0.567
333.15 K, x1 = 0.9 | 749.79 | 1128.9 | – | 0.537

CCC1CCCCC1 [ethylcyclohexane] + CCCCCCCCCCCCCCCC
Settings | mass density [kg/m3] | speed of sound [m/s] | surface tension liquid-gas [mN/m] | viscosity [mPa·s]
293.15 K, x1 = 0.0997 | 773.92 | 1353.2 | – | 3.17
293.15 K, x1 = 0.1997 | 774.6 | 1348.2 | – | 2.87
293.15 K, x1 = 0.3 | 775.39 | 1343.1 | – | 2.57
293.15 K, x1 = 0.4 | 776.26 | 1337.8 | – | 2.26
293.15 K, x1 = 0.4999 | 777.42 | 1331.4 | – | 1.99
293.15 K, x1 = 0.55 | 778.05 | 1328.1 | – | 1.89
293.15 K, x1 = 0.6 | 778.71 | 1325.3 | – | 1.73
293.15 K, x1 = 0.7001 | 780.35 | 1317.5 | – | 1.48
293.15 K, x1 = 0.8003 | 782.34 | 1309.8 | – | 1.25
293.15 K, x1 = 0.9 | 784.8 | 1301.6 | – | 1.04
296 K, x1 = 0.0997 | – | – | 26.8 | –
296 K, x1 = 0.1997 | – | – | 26.7 | –
296 K, x1 = 0.3 | – | – | 26.4 | –
296 K, x1 = 0.4 | – | – | 26.2 | –
296 K, x1 = 0.4999 | – | – | 26.3 | –
296 K, x1 = 0.55 | – | – | 26.2 | –
296 K, x1 = 0.6 | – | – | 26 | –
296 K, x1 = 0.7001 | – | – | 25.9 | –
296 K, x1 = 0.8003 | – | – | 25.7 | –
296 K, x1 = 0.9 | – | – | 25.4 | –
303.15 K, x1 = 0.0997 | 766.96 | 1315.5 | – | 2.54
303.15 K, x1 = 0.1997 | 767.62 | 1310.3 | – | 2.33
303.15 K, x1 = 0.3 | 768.36 | 1305.1 | – | 2.1
303.15 K, x1 = 0.4 | 769.18 | 1299.6 | – | 1.87
303.15 K, x1 = 0.4999 | 770.25 | 1292.9 | – | 1.67
303.15 K, x1 = 0.55 | 770.84 | 1289.4 | – | 1.58
303.15 K, x1 = 0.6 | 771.45 | 1286.4 | – | 1.46
303.15 K, x1 = 0.7001 | 772.96 | 1277.9 | – | 1.27
303.15 K, x1 = 0.8003 | 774.78 | 1269.5 | – | 1.07
303.15 K, x1 = 0.9 | 777.02 | 1260.2 | – | 0.896
313.15 K, x1 = 0.0997 | 760.01 | 1278.6 | – | 2.07
313.15 K, x1 = 0.1997 | 760.63 | 1273.4 | – | 1.9
313.15 K, x1 = 0.3 | 761.32 | 1268 | – | 1.74
313.15 K, x1 = 0.4 | 762.08 | 1262.2 | – | 1.56
313.15 K, x1 = 0.4999 | 763.06 | 1255.2 | – | 1.4
313.15 K, x1 = 0.55 | 763.61 | 1251.5 | – | 1.34
313.15 K, x1 = 0.6 | 764.16 | 1248.3 | – | 1.24
313.15 K, x1 = 0.7001 | 765.54 | 1239.2 | – | 1.08
313.15 K, x1 = 0.8003 | 767.19 | 1230 | – | 0.93
313.15 K, x1 = 0.9 | 769.2 | 1219.7 | – | 0.782
323.15 K, x1 = 0.0997 | 753.07 | 1242.7 | – | 1.73
323.15 K, x1 = 0.1997 | 753.64 | 1237.2 | – | 1.595
323.15 K, x1 = 0.3 | 754.28 | 1231.6 | – | 1.46
323.15 K, x1 = 0.4 | 754.97 | 1225.6 | – | 1.34
323.15 K, x1 = 0.4999 | 755.86 | 1218.3 | – | 1.21
323.15 K, x1 = 0.55 | 756.35 | 1214.3 | – | 1.15
323.15 K, x1 = 0.6 | 756.84 | 1211 | – | 1.09
323.15 K, x1 = 0.7001 | 758.08 | 1201.2 | – | 0.948
323.15 K, x1 = 0.8003 | 759.55 | 1191.3 | – | 0.822
323.15 K, x1 = 0.9 | 761.34 | 1180 | – | 0.693
333.15 K, x1 = 0.0997 | 746.13 | 1207.7 | – | 1.46
333.15 K, x1 = 0.1997 | 746.63 | 1202.1 | – | 1.355
333.15 K, x1 = 0.3 | 747.21 | 1196.2 | – | 1.25
333.15 K, x1 = 0.4 | 747.82 | 1189.9 | – | 1.16
333.15 K, x1 = 0.4999 | 748.62 | 1182.3 | – | 1.03
333.15 K, x1 = 0.55 | 749.06 | 1178 | – | 0.99
333.15 K, x1 = 0.6 | 749.49 | 1174.6 | – | 0.937
333.15 K, x1 = 0.7001 | 750.57 | 1164.1 | – | 0.821
333.15 K, x1 = 0.8003 | 751.86 | 1153.4 | – | 0.716
333.15 K, x1 = 0.9 | 753.41 | 1141.2 | – | 0.607
